Values of other authors as cited in patent US12054764B2, “High-throughput screens for exploring biological functions of microscale biological systems” (THE BROAD INSTITUTE, INC., priority 2017, dated 2024).
Values after ≈ are worked out from the molar mass of the structure shown.

Test system: E. coli
Conditions: stated in the legend of FIG. 10 as the loading concentration in 2% ultra-low melt agarose droplets

CC1(C)S[C@@H]2[C@H](NC(=O)[C@H](N)c3ccccc3)C(=O)N2[C@H]1C(=O)O [Ampicillin]
minimum inhibitory concentration (MIC): 5 µg/mL (≈ 14.3 µM)
